Tested on: male KK mice
Assay: Blood glucose lowering effect in diabetic KK mice
Format: in vivo
Details: Mus musculus, po, 72 h, 15 to 20 weeks old, feed containing 0.03% of the compound, three days, blood glucose on the 3rd day vs control group, read-out: Blood glucose lowering efficacy (%)
Source text: Six-week-old male KK mice were purchased from CLEA Japan, Inc. and then were fed until 15 to 20 weeks old and affected with diabetes. The mice were individually fed during the adaptation period and the test period, and water and feed (FR2, Funabashi Farm) were freely ingested.
At the start of the experiment, after body weight measurement, blood was collected from the tail vein of the mice into a heparin-coated glass tube and centrifuged, and then plasma was separated. The glucose level in the plasma was measured by Glucoloader GXT (A&T Corp.), and individuals having a blood glucose level of about 350 mg/dl or more were selected. Groups each having 3 to 4 mice were used for the experiment, and the mice were grouped to make the average body weight and the average blood glucose level similar. Each compound was administered to a compound administration group by feeding a mixture with feed containing 0.03% of the compound. A separate group in which the mice were fed only with feed was a control group.
The experiment period (drug administration period) was three days. The grouping day was the 0th day. On the 3rd day, body weight was measured and blood was collected from the tail vein to measure the blood glucose level.
The blood glucose lowering efficacy was determined by the following formula.
Blood glucose lowering efficacy=[(Control group blood glucose level−Compound administration group blood glucose level)/Control group blood glucose level]×100

In order of rising inhibition in vivo at 0.03 % in feed:
1. CCc1ccc2c(F)cc(F)cc2c1CNC(=O)c1c(OC)cc(O)c2c1OC1=CC(O)=C(C(C)=O)C(=O)[C@]12C [Example 185, (9aS)-8-Acetyl-N-[(2-ethyl-5,7-difluoro-1-naphthyl)methyl]-1,7-dihydroxy-3-methoxy-9a-methyl-9-oxo-9,9a-dihydrodibenzo[b,d]furan-4-carboxamide]  27%
2. COc1cc(O)c2c(c1C(=O)NCc1ccc(Oc3ccc(Cl)cc3)c3ccccc13)OC1=CC(O)=C(C(C)=O)C(=O)[C@]12C [Example 167, (9aS)-8-Acetyl-N-{[4-(4-chlorophenoxy)-1-naphthyl]methyl}-1,7-dihydroxy-3-methoxy-9a-methyl-9-oxo-9,9a-dihydrodibenzo[b,d]furan-4-carboxamide]  30%
3. CCc1ccc2c(F)cc(C)cc2c1CNC(=O)c1c(OC)cc(O)c2c1OC1=CC(O)=C(C(C)=O)C(=O)[C@]12C [Example 195, (9aS)-8-Acetyl-N-[(2-ethyl-5-fluoro-7-methyl-1-naphthyl)methyl]-1,7-dihydroxy-3-methoxy-9a-methyl-9-oxo-9,9a-dihydrodibenzo[b,d]furan-4-carboxamide]  36%
4. COc1cc(O)c2c(c1C(=O)NCc1c(C)cc(Cl)c3ccccc13)OC1=CC(O)=C(C(C)=O)C(=O)[C@]12C [Example 178, (9aS)-8-Acetyl-N-[(4-chloro-2-methyl-1-naphthyl)methyl]-1,7-dihydroxy-3-methoxy-9a-methyl-9-oxo-9,9a-dihydrodibenzo[b,d]furan-4-carboxamide]  37%
5. CCc1ccc2ccc(F)cc2c1CNC(=O)c1c(OC)cc(O)c2c1OC1=CC(O)=C(C(C)=O)C(=O)[C@]12C [Example 184, (9aS)-8-Acetyl-N-[(2-ethyl-7-fluoro-1-naphthyl)methyl]-1,7-dihydroxy-3-methoxy-9a-methyl-9-oxo-9,9a-dihydrodibenzo[b,d]furan-4-carboxamide]  37%
6. COc1cc(O)c2c(c1C(=O)NCc1c(C)ccc3c(F)cccc13)OC1=CC(O)=C(C(C)=O)C(=O)[C@]12C [Example 183, (9aS)-8-Acetyl-N-[(5-fluoro-2-methyl-1-naphthyl)methyl]-1,7-dihydroxy-3-methoxy-9a-methyl-9-oxo-9,9a-dihydrodibenzo[b,d]furan-4-carboxamide]  38%
7. COc1cc(O)c2c(c1C(=O)NCc1c(C)ccc3c(F)cc(F)cc13)OC1=CC(O)=C(C(C)=O)C(=O)[C@]12C [Example 176, (9aS)-8-Acetyl-N-[(5,7-difluoro-2-methyl-1-naphthyl)methyl]-1,7-dihydroxy-3-methoxy-9a-methyl-9-oxo-9,9a-dihydrodibenzo[b,d]furan-4-carboxamide]  40%
8. CCc1ccc2cccc(F)c2c1CNC(=O)c1c(OC)cc(O)c2c1OC1=CC(O)=C(C(C)=O)C(=O)[C@]12C [Example 192, (9aS)-8-Acetyl-N-[(2-ethyl-8-fluoro-1-naphthyl)methyl]-1,7-dihydroxy-3-methoxy-9a-methyl-9-oxo-9,9a-dihydrodibenzo[b,d]furan-4-carboxamide]  42%
9. COc1cc(O)c2c(c1C(=O)NCc1c(C)cc(Br)c3ccccc13)OC1=CC(O)=C(C(C)=O)C(=O)[C@]12C [Example 177, (9aS)-8-Acetyl-N-[(4-bromo-2-methyl-1-naphthyl)methyl]-1,7-dihydroxy-3-methoxy-9a-methyl-9-oxo-9,9a-dihydrodibenzo[b,d]furan-4-carboxamide]  43%
10. CCc1cc(F)c2ccccc2c1CNC(=O)c1c(OC)cc(O)c2c1OC1=CC(O)=C(C(C)=O)C(=O)[C@]12C [Example 187, (9aS)-8-Acetyl-N-[(2-ethyl-4-fluoro-1-naphthyl)methyl]-1,7-dihydroxy-3-methoxy-9a-methyl-9-oxo-9,9a-dihydrodibenzo[b,d]furan-4-carboxamide]  44%
11. COc1cc(O)c2c(c1C(=O)NCc1c(C)ccc3ccc(Cl)cc13)OC1=CC(O)=C(C(C)=O)C(=O)[C@]12C [Example 181, (9aS)-8-Acetyl-N-[(7-chloro-2-methyl-1-naphthyl)methyl]-1,7-dihydroxy-3-methoxy-9a-methyl-9-oxo-9,9a-dihydrodibenzo[b,d]furan-4-carboxamide]  45%
12. COc1cc(O)c2c(c1C(=O)NCc1c(C)cc(C)c3ccccc13)OC1=CC(O)=C(C(C)=O)C(=O)[C@]12C [Example 171, (9aS)-8-Acetyl-1,7-dihydroxy-3-methoxy-9a-methyl-N-[(2,4-dimethyl-1-naphthyl)methyl]-9-oxo-9,9a-dihydrodibenzo[b,d]furan-4-carboxamide]  47%
13. CCc1cc(F)c2ccc(C)cc2c1CNC(=O)c1c(OC)cc(O)c2c1OC1=CC(O)=C(C(C)=O)C(=O)[C@]12C [Example 189, (9aS)-8-Acetyl-N-[(2-ethyl-4-fluoro-7-methyl-1-naphthyl)methyl]-1,7-dihydroxy-3-methoxy-9a-methyl-9-oxo-9,9a-dihydrodibenzo[b,d]furan-4-carboxamide]  47%
14. COc1cc(O)c2c(c1C(=O)NCc1c(C)ccc3ccc(F)cc13)OC1=CC(O)=C(C(C)=O)C(=O)[C@]12C [Example 182, (9aS)-8-Acetyl-N-[(7-fluoro-2-methyl-1-naphthyl)methyl]-1,7-dihydroxy-3-methoxy-9a-methyl-9-oxo-9,9a-dihydrodibenzo[b,d]furan-4-carboxamide]  50%
15. CCc1ccc2ccc(F)c(F)c2c1CNC(=O)c1c(OC)cc(O)c2c1OC1=CC(O)=C(C(C)=O)C(=O)[C@]12C [Example 193, (9aS)-8-Acetyl-N-[(2-ethyl-7,8-difluoro-1-naphthyl)methyl]-1,7-dihydroxy-3-methoxy-9a-methyl-9-oxo-9,9a-dihydrodibenzo[b,d]furan-4-carboxamide]  50%
16. CCc1ccc2ccc(Cl)cc2c1CNC(=O)c1c(OC)cc(O)c2c1OC1=CC(O)=C(C(C)=O)C(=O)[C@]12C [Example 186, (9aS)-8-Acetyl-N-[(7-chloro-2-ethyl-1-naphthyl)methyl]-1,7-dihydroxy-3-methoxy-9a-methyl-9-oxo-9,9a-dihydrodibenzo[b,d]furan-4-carboxamide]  53%
17. CCc1ccc2cc(F)c(F)cc2c1CNC(=O)c1c(OC)cc(O)c2c1OC1=CC(O)=C(C(C)=O)C(=O)[C@]12C [Example 188, (9aS)-8-Acetyl-N-[(2-ethyl-6,7-difluoro-1-naphthyl)methyl]-1,7-dihydroxy-3-methoxy-9a-methyl-9-oxo-9,9a-dihydrodibenzo[b,d]furan-4-carboxamide]  57%
18. COc1cc(O)c2c(c1C(=O)NCc1c(C)ccc3c(F)c(F)c(F)cc13)OC1=CC(O)=C(C(C)=O)C(=O)[C@]12C [Example 190, (9aS)-8-Acetyl-1,7-dihydroxy-3-methoxy-9a-methyl-9-oxo-N-[(5,6,7-trifluoro-2-methyl-1-naphthyl)methyl]-9,9a-dihydrodibenzo[b,d]furan-4-carboxamide]  58%
19. COc1cc(O)c2c(c1C(=O)NCc1c(C)cc(F)c3ccccc13)OC1=CC(O)=C(C(C)=O)C(=O)[C@]12C [Example 180, (9aS)-8-Acetyl-N-[(4-fluoro-2-methyl-1-naphthyl)methyl]-1,7-dihydroxy-3-methoxy-9a-methyl-9-oxo-9,9a-dihydrodibenzo[b,d]furan-4-carboxamide]  60%
